Reference: patent publication US20210087159A1, “TETRAHYDROCANNABINOLIC- CA[…] DERIVATIVES AND USES THEREOF” (AL&AM […]., priority 2018, published 2021)

What was measured:
Type in all cases: cell-based
[1] = system: TNF-α; experiment: LPS induced cytokine release assay, TNF-α by ELISA in PBMCs; conditions: human PBMCs; for TNF-α: 72 h; for change of TNF-α expression in LPS-treated cells: tested concentrations of 1 M and 10 M (so in the source)
From the text: (§1) This study was aimed to test the effect of 12 compounds (THCA, Ia1, Ia5, Ia6, Ia9, Ia11, Ia15, Ia17, Ia24, Ia25, Ia27, and Ia28) on human peripheral blood mononuclear cells (PBMCs) challenged by lipopolysaccharide (LPS) through monitoring multiple inflammatory endpoints.
(§2) Blood samples were collected from healthy volunteers according to protocols that have been reviewed and approved by the Chempartner Institutional Ethic Committee (IEC) upon signing an Informed Consent Form (ICF).
(§3) Fresh PBMCs were isolated and seeded into 96-well plate, and diluted solutions of the tested compounds and 0.1 μg/mL LPS were then added (in triplicates). To serve as control, 3 wells with PBMCs only, 3 wells with 0.1 μg/mL LPS, and 2 wells with 1 μg/mL dexamethasone (Dex) and 0.1 μg/mL LPS were included. After 72 hours incubation, supernatant was collected for tumor necrosis factor-α (TNF-α) measurement by enzyme-linked immunosorbent assay (ELISA), and cell pellets were harvested for cell proliferation measurement by CellTiter-Glo® Luminescent Cell Viability Assay (CTG).
(§4) The human blood sample from an individual donor was diluted by the same volume of sterile phosphate buffered solution (PBS) and mixed sufficiently by gentle shake. 15 mL Lymphoprep™ medium was transferred into a new 50 mL centrifuge tube, and the diluted blood sample (30 mL) was then carefully added onto the surface of the medium, which consequently contained Ficoll 400 and blood in a volume ratio of 1:2. Four interfaces were observed after centrifugation, which are, from top to bottom, layers of plasma, mononuclear cells, Ficoll medium, and red blood cells (RBCs). Plasma was absorbed, and mononuclear cells were then transferred into another new sterile centrifuge tube. Then, sterile PBS buffer was added into the collected PBMCs for washing, at a volume ratio of 3:1. PBMCs were washed with 5-10 mL PBS twice before cell counting with cytometer. Cells were centrifuged at 350×g, for 10 min, at 20° C. with the acceleration (5) and deceleration (5) settings during the centrifugation. The cells were resuspended with RPMI 1640 complete medium (containing 10% FBS) for assay, and the density was adjusted with RPMI 1640 complete medium to the final concentration of 2E6 cells/mL. Cells suspension of the PBMCs (100 μL/well) were seeded into 96-well plate (#3903).
(§5) Diluted solutions of the tested compounds were prepared with RPMI 1640 complete medium according to the following layout. Compounds were prepared at 5-fold of concentration (50 μM), and then were diluted to the working concentration of 10 μM with RPMI 1640 complete medium and made 10-fold serially dilution (2 points). The diluted compounds (50 μL/well) were added to the indicated wells, and the plate was incubated at 37° C., 5% CO2, for 72 h.
(§6) LPS (0.1 μg/mL, 100 μL) was added into each well. Dex (1 μg/mL) was included as a positive control. Plate was incubated at 37° C., 5% CO2 for 72 h. Supernatant was collected to measure TNF-α by ELISA. Cell proliferation was detected by CTG.

[2] = system: human peripheral blood mononuclear cells (PBMCs); experiment: Cell proliferation of LPS-challenged PBMCs by CellTiter-Glo (CTG); conditions: human PBMCs
From the text: as §1, §2, §3, §4, §5, §6

[3] = system: T47D, breast ductal carcinoma; experiment: CellTiter-Glo cell viability assay, cancer cell cytotoxicity/anti-proliferation panel (Chempartner); conditions: Table 5, T47D cells, 72 hours; for IC50: Homo sapiens, read-out: AbsIC50; for Inhibition %: 10 μM starting, 10-pt, 3-fold dilution
Protocol: In this study, the biological activity of certain compounds of the present invention on cancer cell cytotoxicity/anti-proliferation panel was tested using the CellTiter-Glo® cell viability assay. The compounds were dissolved in DMSO to make 10 mM solution.
The cell lines tested were all selected from the Chempartner's cell collection and included: Caco-2 ATCC colon adenocarcinoma; TE-6 RIKEN esophagus, carcinoma; PC-3 ATCC prostate adenocarcinoma; T47D, breast ductal carcinoma; U251, brain human glioma; A549, lung carcinoma; OMP-2, multiple myeloma; SK-HEP-1, liver adenocarcinoma; PANC-1, pancreas ductal carcinoma; AsPC-1, pancreas, ductal carcinoma; and U-87 MG, brain glioblastoma.
For the assays described herein, absolute inhibition of cells growth (%) and absolute IC50 (Abs IC50; […]) were used to derive a value that can be used to compare results within and across runs in the same assay, as well as between different assays.
• a. Prepare complete medium: Add FBS and appropriate additives according to the information sheet provided by the vendor. Mix gently. • b. Check the cell name and complete medium and passage number marked on the flask. For adherent cell lines, refer to c to k. For suspension cell lines, refer to g to k. • c. Remove and discard culture medium using a vacuum pump. • d. Briefly rinse the cell layer with 0.25% (w/v) trypsin-0.038% (w/v) EDTA solution to remove all traces of serum that contains trypsin inhibitor. • e. Add 3.0 ml of trypsin-EDTA solution to flask and observe cells under an inverted microscope until cell layer is dispersed. • f. Add 8.0 ml of complete growth medium and aspirate cells by gently pipetting. • g. Transfer the cell suspension to a centrifuge tube and centrifuge at 800-1000 rpm for 3-5 minutes. • h. Discard the supernatant using a vacuum pump. • i. Add appropriate volume of complete medium. Suspend the cell pellet by gently pipetting. • j. Count the cell numbers with Vi-cell XR and adjust cells to appropriate density. • k. Add 100 μL of cell suspension to 96-well opaque-walled clear bottom plates according to the planned plate layout and place the plates in the CO2 incubator overnight. • l. Plate layout:
• Plate preparation of testing articles. 10 mM stock solution of each one of the compounds (provided as powder) was prepared in DMSO. […] 0.5 μL of each of the diluted compounds was transferred to the wells containing 100 μL of the culture medium. The total dilution was 200 fold. Cells were incubated with the compounds for 72 hours at 5% CO2, 37° C.
• Thaw the CellTiter-Glo buffer and equilibrate to room temperature prior to use. • Equilibrate the lyophilized CellTiter-Glo substrate to room temperature prior to use. • Transfer the appropriate volume of CellTiter-Glo buffer into the amber bottle containing CellTiter-Glo substrate to reconstitute the lyophilized enzyme/substrate mixture. This forms the CellTiter-Glo reagent. • Mix by gently vortexing, swirling or by inverting the contents to obtain a homogeneous solution. The CellTiter-Glo substrate should go into solution easily in less than one minute.
• Observe the cell morphology under an inverted microscope after corresponding treatment. • Equilibrate the plate and its contents to room temperature for approximately 30 minutes. • Add 100 μL of CellTiter-Glo reagent to the assay plate by Multidrop Combi instrument. • Mix contents for 10 minutes on an orbital shaker to induce cell lysis. • Allow the plate to incubate at room temperature for 10 minutes to stabilize luminescent signal. • Paste the clear bottom with white back seal and record luminescence with Enspire. The settings should be: Luminescence, measurement time 0.1 ms.
Inhibition (%) and absolute IC50 (μM) of each compound was calculated with XLFit curve fitting software that is compatible to Activity Base.

[4] = compound 1 μM + 0.1 μg/mL LPS, ELISA (LPS control 18.16)
[5] = compound 10 μM + 0.1 μg/mL LPS, ELISA (LPS control 18.16)
[6] = compound 1 μM + 0.1 μg/mL LPS, 72 h (LPS control 84.50)
[7] = compound 10 μM + 0.1 μg/mL LPS, 72 h (LPS control 84.50)

SMILES	decrease of the level of TNF-α as compared to LPS-treated cells ([1]; 1 μg/mL Dex)	TNF-α ([1]; 1 μg/ml Dex + 0.1 μg/ml LPS + 0.1% DMSO)	CTG signal ([2]; 1 μg/ml Dex + 0.1 μg/ml LPS + 0.1% DMSO, 72 h)	TNF-α [1, 4]	TNF-α [1, 5]	CTG signal [2, 6]	CTG signal [2, 7]	IC50 [3]	Inhibition % [3]	change of TNF-α expression in LPS-treated cells [1]
C[C@@H]1C[C@H]2[C@@H]3CCC4=CC(=O)C=C[C@]4(C)[C@@]3(F)[C@@H](O)C[C@]2(C)[C@@]1(O)C(=O)CO [Dex, dexamethasone, reference compound]	2.5 folds	5.38 pg/mL	65.51 10^4							
CCCCCc1cc2c(c(O)c1C(N)=O)[C@@H]1C=C(C)CC[C@H]1C(C)(C)O2 [Ia1, (6aR,0aR)-1-hydroxy-6,6,9-trimethyl-3-pentyl-6a,7,8,10a-tetrahydro-6H-benzo[c]chromene-2-carboxamide]				16.30 pg/mL	11.85 pg/mL	74.10 10^4	70.03 10^4			
CCCCCc1cc2c(c(O)c1C(=O)NCCOC)[C@@H]1C=C(C)CC[C@H]1C(C)(C)O2 [Ia4, (6aR,0aR)-1-hydroxy-N-(2-methoxyethyl)-6,6,9-trimethyl-3-pentyl-6a,7,8,10a-tetrahydro-6H-benzo[c]chromene-2-carboxamide]								> 10 µM	3.13%	
CCCCCc1cc2c(c(O)c1C(=O)NCC1CC1)[C@@H]1C=C(C)CC[C@H]1C(C)(C)O2 [Ia5, (6aR,0aR)—N-(cyclopropylmethyl)-1-hydroxy-6,6,9-trimethyl-3-pentyl-6a,7,8,10a-tetrahydro-6H-benzo[c]chromene-2-carboxamide]				19.60 pg/mL	32.33 pg/mL	74.73 10^4	76.26 10^4	> 10 µM	7.89%	increased TNF-α expression
CCCCCc1cc2c(c(O)c1C(=O)NCc1ccncc1)[C@@H]1C=C(C)CC[C@H]1C(C)(C)O2 [Ia11, 1-hydroxy-6,6,9-trimethyl-3-pentyl-N-(pyridin-4-ylmethyl)-6a,7,8,10a-tetrahydro-6H-benzo[c]chromene-2-carboxamide]				28.40 pg/mL	15.39 pg/mL	72.49 10^4	74.91 10^4	> 10 µM	15.80%	decreased TNF-α expression
CCCCCc1cc2c(c(O)c1C(=O)Nc1ccc(N3CCOCC3)cc1)[C@@H]1C=C(C)CC[C@H]1C(C)(C)O2 [Ia17, (6aR,0aR)-1-hydroxy-6,6,9-trimethyl-N-(4-morpholinophenyl)-3-pentyl-6a,7,8,10a-tetrahydro-6H-benzo[c]chromene-2-carboxamide]				16.44 pg/mL	24.59 pg/mL	74.83 10^4	72.61 10^4			increased TNF-α expression
CCCCCc1cc2c(c(O)c1CNCCCN1CCOCC1)[C@@H]1C=C(C)CC[C@H]1C(C)(C)O2 [Ia21, (6aR,10aR)-6,6,9-trimethyl-2-(((3-morpholinopropyl)amino)methyl)-3-pentyl-6a,7,8,10a-tetrahydro-6H-benzo[c]chromen-1-ol]								> 10 µM	21.68%	
CCCCCc1cc2c(c(O)c1-c1nnc(C)o1)[C@@H]1C=C(C)CC[C@H]1C(C)(C)O2 [Ia24, (6aR,0aR)-6,6,9-Trimethyl-2-(5-methyl-1,3,4-oxadiazol-2-yl)-3-pentyl-6a,7,8,10a-tetrahydro-6H-benzo[c]chromen-1-ol]				32.33 pg/mL	28.53 pg/mL	77.88 10^4	62.41 10^4			decreased TNF-α expression
CCCCCc1cc2c(c(O)c1C(=O)S)[C@@H]1C=C(C)CC[C@H]1C(C)(C)O2 [Ia25, (6aR,0aR)-1-hydroxy-6,6,9-trimethyl-3-pentyl-6a,7,8,10a-tetrahydro-6H-benzo[c]chromene-2-carbothioic S-acid]				42.50 pg/mL	36.82 pg/mL	83.27 10^4	75.29 10^4			decreased TNF-α expression
